Laboratory results as given in patent US9181231B2, “Pyruvate kinase activators for use for increasing lifetime of the red blood cells and treating anemia” (AGIOS PHARMACEUTICALS, INC, priority 2011, dated 2015).

How the values were obtained:
Format in all cases: biochemical
Settings in all cases: compound at 1 μM
[1] = target: PKR wt (Homo sapiens, UniProt P30613); assay: PKR Wide Type Single Point Percent Activation Assay
Experimental: PKR Wide Type Single Point Percent Activation Assay
(§1) A compound described herein was diluted with DMSO and tested at 1 μM concentration. The enzyme was diluted in 1× Buffer: (100 mM KCl, 50 mM Tris 7.5, 5 mM MgCl2, 1 mM DTT, 0.03% BSA). 2 μL of compound solution was first added into wells, and then 180 μL of enzyme solution was added. Assays were assembled except for ADP, and plates were stored for 60 minutes at RT. 20 μL ADP was added to start the assay and assay output was evaluated using OD340 at SpectraMax. The assay was run at room temperature.
PKR wt (100 ng/well), Tris pH 7.5 (50 mM), KCl (100 mM), MgCl2 (5 mM), ADP (0.48 mM), PEP (0.15 mM), NADH (180 μM), LDH (0.5 units, Sigma 59023), DTT (1 mM) and BSA (0.03%).

[2] = test system: PKR T384W; assay: PKR T384W Single Point Percent Activation Assay
Experimental: PKR T384W Single Point Percent Activation Assay
as §1, with “180 μL enzyme solution” for “180 μL of enzyme solution”
PKR T384W soluble (300 ng/well), Tris pH 7.5 (50 mM), KCl (100 mM), MgCl2 (5 mM), ADP (0.08 mM), PEP (0.23 mM), NADH (180 μM), LDH (0.5 units, Sigma 59023), DTT (1 mM) and BSA (0.03%).

[3] = target: PKR R510Q (Homo sapiens, UniProt P30613, R510Q); assay: PKR R510Q Single Point Percent Activation Assay
Experimental: PKR R510Q Single Point Percent Activation Assay
as §1
PKR R510Q (40 ng/well), Tris pH 7.5 (50 mM), KCl (100 mM), MgCl2 (5 mM), ADP (0.2 mM), PEP (0.11 mM), NADH (180 μM), LDH (0.5 units, Sigma 59023), DTT (1 mM) and BSA (0.03%).

[4] = target: PKR R532W (Homo sapiens, UniProt P30613, R532W); assay: PKR R532W Single Point Percent Activation Assay
Experimental: PKR R532W Single Point Percent Activation Assay
as §1
PKR R532W (100 ng/well), Tris pH 7.5 (50 mM), KCl (100 mM), MgCl2 (5 mM), ADP (0.36 mM), PEP (0.1 mM), NADH (180 μM), LDH (0.5 units, Sigma 59023), DTT (1 mM) and BSA (0.03%).

Chain of PKR R532W (P30613 whole entry R532W): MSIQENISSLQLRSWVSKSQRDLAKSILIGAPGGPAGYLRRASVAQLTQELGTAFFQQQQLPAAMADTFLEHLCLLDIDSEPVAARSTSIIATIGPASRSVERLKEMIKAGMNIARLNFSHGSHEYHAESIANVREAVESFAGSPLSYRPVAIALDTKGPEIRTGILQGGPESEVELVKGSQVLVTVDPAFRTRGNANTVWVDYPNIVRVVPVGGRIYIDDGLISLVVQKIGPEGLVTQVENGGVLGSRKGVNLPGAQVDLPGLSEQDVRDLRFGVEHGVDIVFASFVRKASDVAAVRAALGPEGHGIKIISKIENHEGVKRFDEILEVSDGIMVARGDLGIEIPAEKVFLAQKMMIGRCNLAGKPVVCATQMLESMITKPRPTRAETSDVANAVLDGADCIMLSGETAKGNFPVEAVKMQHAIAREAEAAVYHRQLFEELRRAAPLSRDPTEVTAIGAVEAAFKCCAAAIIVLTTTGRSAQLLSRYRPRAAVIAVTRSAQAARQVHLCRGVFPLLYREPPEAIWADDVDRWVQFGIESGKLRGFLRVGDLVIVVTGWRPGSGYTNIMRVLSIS
Chain of PKR R510Q (P30613 whole entry R510Q): as the sequence (P30613 whole entry R532W) above, with R510Q, W532R counted along it
Chain of PKR wt (P30613 whole entry): as the sequence (P30613 whole entry R532W) above, with W532R counted along it

## CN1C(=O)COc2ccc(S(=O)(=O)Nc3ccc(F)c(Cl)c3)cc21
[1]
  % Act. WT: B (a % activation at 1 μM of from 101 to 500)
[2]
  % Act. T384W: B (a % activation at 1 μM of from 101 to 500)
[3]
  % Act. R510Q: B (a % activation at 1 μM of from 101 to 500)
[4]
  % Act. R532W: B (a % activation at 1 μM of from 101 to 500)

## O=C(c1c(F)cccc1F)N1CCN(S(=O)(=O)c2ccc3c(c2)OCCO3)CC1
[1]
  % Act. WT: B (a % activation at 1 μM of from 101 to 500)
[2]
  % Act. T384W: B (a % activation at 1 μM of from 101 to 500)
[3]
  % Act. R510Q: B (a % activation at 1 μM of from 101 to 500)
[4]
  % Act. R532W: B (a % activation at 1 μM of from 101 to 500)

## O=C1Oc2ccc(S(=O)(=O)Nc3ccc(F)c(Cl)c3)cc2CN1Cc1ccccc1
[1]
  % Act. WT: B (a % activation at 1 μM of from 101 to 500)
[2]
  % Act. T384W: B (a % activation at 1 μM of from 101 to 500)
[3]
  % Act. R510Q: B (a % activation at 1 μM of from 101 to 500)
[4]
  % Act. R532W: B (a % activation at 1 μM of from 101 to 500)

## O=C1CN(Cc2ccccc2)c2cc(S(=O)(=O)Nc3cccc(Cl)c3)ccc2O1
[1]
  % Act. WT: A (a % activation at 1 μM of from 1 to 100)
[2]
  % Act. T384W: A (a % activation at 1 μM of from 1 to 100)
[3]
  % Act. R510Q: B (a % activation at 1 μM of from 101 to 500)
[4]
  % Act. R532W: A (a % activation at 1 μM of from 1 to 100)

## O=C1Nc2cc(S(=O)(=O)Nc3cccc(F)c3)ccc2NC1Cc1ccccc1 (stereo not shown)
[1]
  % Act. WT: B (a % activation at 1 μM of from 101 to 500)
[2]
  % Act. T384W: B (a % activation at 1 μM of from 101 to 500)
[3]
  % Act. R510Q: B (a % activation at 1 μM of from 101 to 500)
[4]
  % Act. R532W: B (a % activation at 1 μM of from 101 to 500)

## CN1c2ccc(S(=O)(=O)Nc3cccc(F)c3)cc2NC(=O)C1Cc1ccccc1 (stereo not shown)
[1]
  % Act. WT: B (a % activation at 1 μM of from 101 to 500)
[2]
  % Act. T384W: B (a % activation at 1 μM of from 101 to 500)
[3]
  % Act. R510Q: B (a % activation at 1 μM of from 101 to 500)
[4]
  % Act. R532W: B (a % activation at 1 μM of from 101 to 500)

## CN1c2cc(S(=O)(=O)Nc3cccc(F)c3)ccc2OC(=O)[C@@H]1Cc1ccccc1
[1]
  % Act. WT: B (a % activation at 1 μM of from 101 to 500)
[2]
  % Act. T384W: B (a % activation at 1 μM of from 101 to 500)
[3]
  % Act. R510Q: B (a % activation at 1 μM of from 101 to 500)
[4]
  % Act. R532W: A (a % activation at 1 μM of from 1 to 100)
